Measurements reported in paper PMC4459817, “Vasculotide reduces endothelial permeability and tumor cell extravasation in the absence of binding to or agonistic activation of Tie2” (EMBO Molecular Medicine, 2015).

Test system: Tie2+ ECs (HMVEC-LBl)
Assay: MTS cell viability assay, endothelial cells
Type: cell-based, human
Details: for IC50: Homo sapiens, Endothelial cell, 48 h, SU in MTS viability assay, predetermined from dose-response curves, cell line of IC50 not clearly printed
Experimental: TCs were cultured in DMEM High Glucose basal media supplemented with 5% FBS and grown humidified incubators at 37 °C, 21%O2 and 5%CO2 unless otherwise specified. LM2-4 luc is a highly metastatically aggressive variant of the human breast carcinoma MDA-MB-231 cell line (derived through serial in vivo selection of lung metastases from orthotopic implantations in immunodeficient mice) that has been transfected with a firefly luciferase vector (Man et al, 2007; Ebos et al, 2009). HT29luc is a human colon carcinoma cell line also transfected with the luciferase gene (Hackl et al, 2013). SN12luc refers to a luciferase-tagged and highly metastatic clone of a human renal cell carcinoma cell line, SN12-PM6-L1luc (Jedeszko et al, 2015). MeWo is a human melanoma cell line (Ebos et al, 2009).
2. Endothelial cells (ECs)
ECs were grown in humidified incubators at 37 °C, 21%O2 and 5%CO2 unless otherwise specified.
Primary human microvascular ECs derived from adult lung blood vessels (HMVEC-LBl, Lonza CC-2815 or HLMEC ) or neonatal dermal blood vessels (HMVEC-DBl, Lonza CC-2813 or HDMEC) were grown in EBM-2 basal media (Lonza CC-3156), supplemented with EGM-2-MV growth factors (Lonza CC-4147, which includes 5% FBS and 2 ng/mL VEGF). Primary human umbilical vein ECs (HUVECs) were grown on 1% gelatinized plates in F12K media, supplemented with 10% FBS, 0.1 mg/mL heparin sodium, 10 ng/mL EGF, 10 ng/mL VEGF, 5 ng/mL bFGF and penicillin + streptomycin + 2mM L-glutamine (P/S/Glut). Transformed human EA.hy926 and murine MS1 ECs were grown in DMEM + 10% FBS + P/S/Glut (+ HAT for EA.hy926).
3. […]
5,000 LM2-4luc or HMVEC-LBl cells, in 100uL of their regular growth media, were seeded per well on a 96-well plate. […] Absorbances were read at 490nm and background-corrected with reference 560nm readings or acellular treatment-only […]
4. […] Protein concentrations in TC-CM vs. control media were measured using: a Quantikine ELISA kit (R&D Systems DVE00) for human VEGF; a FlowCytomix Multiplex kit (eBioscience BMS810FF) for human IL-6 and IL-8; and a BCA protein assay kit (Thermo Scientific) for total protein.

Compound | IC50 ('VEGF-rich' media (0.5% FBS + 50 ng/mL VEGF)) | IC50 ('normal' media (5% FBS)) | interference with SU inhibition of ECs (48 h MTS, VT + SU, Supplementary Fig S2)
CCN(CC)CCNC(=O)c1c(C)[nH]c(/C=C2\C(=O)Nc3ccc(F)cc32)c1C [sunitinib, reference compound] | 5 µM | 2 µM | 
CHHHRHSF [Vasculotide, 4-armed maleimide-functionalized polyethylene glycol (PEG) backbone to link together four cysteine-capped T7 peptides, that is, CHHHRHSF] |  |  | did not interfere with SU inhibition of Tie2^+ ECs
